Reference: PMC9736856, “Biological Investigation and Chemical Study of Brassica villosa subsp. drepanensis (Brassicaeae) Leaves” (Molecules, 2022)
Values belong to the compound of their own block, whether it stands above or below them.

Key:
DPPH test = conditions: positive control
Procedure: Free radical-scavenging capacity was analysed through the ability of the total extract and the fractions to bleach the stable radical DPPH. […] Briefly, after 10 min at room temperature, the absorbance at λ = 517 nm of the DPPH reaction mixture containing different concentrations of […] extract (125-1000 μg/mL) in 1 mL of ethanol was recorded. Results, expressed as decrease in absorbance, represent the average ± S.D. of three independent experiments.

[1] = SOD-like activity (superoxide anion scavenging, NADH oxidation); conditions: positive control
Procedure: The scavenger effect of B. drepanensis extract and the fractions on superoxide anions was recorded as a decrease in absorbance at λ = 340 nm, as previously reported by Salerno et al.. […] SOD (80 mU) was used as a reference compound.

[2] = β-carotene bleaching test
Procedure: The β-carotene bleaching test was performed following the procedure previously described, using propyl gallate as the positive control. […] The microplate was located in a water bath at 45 °C and the absorbance was read at 470 nm against a blank at t = 0 and after 30 and 60 min of incubation.

CaCo-2 cells = experiment: MTT assay, CaCo-2; assay type: cell-based; conditions: Homo sapiens, read-out: IC50 (MTT, cytotoxicity standard)
Procedure: The human foreskin fibroblast cell line HFF-1 (ATCC® SCRC-1041.1) was maintained in DMEM supplemented with 15% v/v foetal bovine serum (FBS), 4.5 g/L glucose, 100 U/mL penicillin, and […] streptomycin. HFF-1 was used as an in vitro human model for preliminary toxicity screening. Mouse leukemic monocyte-macrophage cells RAW 264.7 (Sigma-Aldrich 91062702) were cultured in EMEM supplemented with 2 mM L-Glutamine (Euroclone, Milan, Italy), 1% non-essential amino acids, 10% FBS, and penicillin/streptomycin/amphotericin. […] was used as an in vitro model of LPS-induced inflammation. Human colon carcinoma cells CaCo-2 (ATCC®, HTB-37) were cultured in DMEM supplemented with 10% FBS, 1 mmol/L sodium pyruvate, 2 mmol/L L-glutamine, streptomycin ([…]), and penicillin (50 U/mL). […]
HFF-1, RAW 264.7, CaCo-2, DU145, 1321N1, and U87 MG cells were treated with different concentrations of total extract (25–50–100–150–250–500–1000 μg/mL), while RAW 264.7 cells were also treated with the fractions obtained from the total extract (EtOAc, n-BuOH, and H2O) at the same concentrations (25–50–100–150–250–500–1000 μg/mL) for 24 h. […] The absorbance of the converted formazan was measured using a microplate spectrophotometer reader (Titertek Multiskan, Flow Laboratories, Helsinki, Finland) at λ = 570 nm. […]

[3] = ABTS radical-scavenging assay; conditions: cell free
Procedure: In this assay, a solution of ABTS radical cations was mixed with a potassium persulphate solution and stored at room temperature for 12 h. The obtained solution was diluted with ethanol, read to obtain an absorbance of 0.70 at 734 nm, and added to the tested sample (1–400 μg/mL). After 6 min, the absorbance was read at 734 nm. Ascorbic acid was the positive control. The ABTS radical-scavenging ability was calculated with this equation: [(A0−A1)/A0] × 100, where A0 is the absorbance of the control and A1 is the absorbance in the presence of the samples.

Compound: COc1cccc2c1C(=O)c1c(O)c3c(c(O)c1C2=O)C[C@@](O)(C(=O)CO)C[C@@H]3O[C@H]1C[C@H](N)[C@H](O)[C@H](C)O1 [doxorubicin, Doxorubicin]
- IC50 (CaCo-2 cells): 21 ± 0.3 µM

Compound: O=C1O[C@H]([C@@H](O)CO)C(O)=C1O [Ascorbic acid, ascorbic acid]
- ABTS Test IC50 [3]: 1.73 ± 0.06 µg/mL

Continued, values first:

- IC50 (DPPH test): 15 µM
Compound: Cc1c(C)c2c(c(C)c1O)CCC(C)(C(=O)O)O2 (stereo not drawn) [Trolox]

- SOD-like Activity IC50 [1]: 40 mU ± 0.85
Compound: superoxide dismutase [SOD]

- β-Carotene Bleaching Test IC50 ([2]; after 30 min of incubation): 0.09 ± 0.04 µg/mL
- β-Carotene Bleaching Test IC50 ([2]; after 60 min of incubation): 0.09 ± 0.04 µg/mL
Compound: CCCOC(=O)c1cc(O)c(O)c(O)c1 [Propyl gallate, propyl gallate]
